Where “and” joins values, the source holds several entries; their conditions need not be identical. Equal entries are not always repeated.
Experiments:
D1 = D1 (Homo sapiens, UniProt P21728); assay: NIMH PDSP receptor binding, D1
D2 = target: T1, D2 (Homo sapiens, UniProt P14416); assay: NIMH PDSP receptor binding, D2; conditions: [3H]N-methylspiperone, read-out: % Inhibition of Binding at 10 µM D-473
T1 construct: purchased NIMH PDSP

D3 = target: T2, D3 (Homo sapiens, UniProt P35462); assay: NIMH PDSP receptor binding, D3; conditions: [3H]N-methylspiperone, read-out: % Inhibition of Binding at 10 µM D-473
T2 construct: purchased NIMH PDSP

5HT1d = target: T3, 5HT1d (Homo sapiens, UniProt P28221); assay: NIMH PDSP receptor binding, 5HT1d; conditions: [3H]GR-125743, read-out: % Inhibition of Binding at 10 µM D-473
T3 construct: purchased NIMH PDSP

5HT3 = target: T4, 5HT3 (Homo sapiens, UniProt P46098); assay: NIMH PDSP receptor binding, 5HT3; conditions: [3H] LY 278,584, read-out: % Inhibition of Binding at 10 µM D-473
T4 construct: purchased NIMH PDSP

5HT6 = target: T5, 5HT6 (Homo sapiens, UniProt P50406); assay: NIMH PDSP receptor binding, 5HT6; conditions: [3H]LSD, read-out: % Inhibition of Binding at 10 µM D-473
T5 construct: purchased NIMH PDSP

GABA A = assay: NIMH PDSP receptor binding, GABA A; conditions: [3H]Muscimol
Alpha1B = target: T6, Alpha1B (Homo sapiens, UniProt P35368); assay: NIMH PDSP receptor binding, Alpha1B; conditions: [3H]Prazosin, read-out: % Inhibition of Binding at 10 µM D-473
T6 construct: purchased NIMH PDSP

Beta1 = target: T7, Beta1 (Homo sapiens, UniProt P08588); assay: NIMH PDSP receptor binding, Beta1; conditions: [125I]Iodopindolol, read-out: % Inhibition of Binding at 10 µM D-473
T7 construct: purchased NIMH PDSP

δ-opioid = target: T8, δ-opioid (Homo sapiens, UniProt P41143); assay: NIMH PDSP receptor binding, δ-opioid; conditions: [3H]DADLE, read-out: % Inhibition of Binding at 10 µM D-473
T8 construct: purchased NIMH PDSP

H2 = target: T9, H2 (Homo sapiens, UniProt P25021); assay: NIMH PDSP receptor binding, H2; conditions: [3H]Tiotodine
T9 construct: NIMH PDSP

PBR = assay: NIMH PDSP receptor binding, PBR
[1] = test system: extracellular DA, 5-HT, NE and metabolites in the dorsal lateral striatum (DLS); assay: Microdialysis in dorsal lateral striatum, monoamines and metabolites; type: in vivo, rat; conditions: 10 mg/kg i.p.
Description: Adult male Sprague-Dawley rats (Harlan, Indianapolis, IN) weighing between 250 and 350 g were used for all experiments. Rats were housed in a temperature and humidity controlled room with 12 hr light/dark cycles with food and water available ad libitum. Adequate measures were taken to prevent animal pain and discomfort. All animals were treated as approved by the University of Michigan Unit for Laboratory Animal Medicine (ULAM) and in accordance with the National Institute of Health (NIH) Guidelines for the Care and Use of Laboratory Animals.
Rats were anesthetized with using an isoflurane vaporizer that was interfaced to a model 963 Ultra Precise stereotaxic instrument with 0.1 mm resolution (David Kopf Instruments, Tujunga, CA). Concentrically designed microdialysis probes (1 mm dialyzing length) were built in house then implanted bilaterally into the dorsal lateral striatum (DLS) and the medial prefrontal cortex (mPFC) according to the following coordinates from bregma and dura (in mm): AP +1, ML +3.3, DV –5.7 and AP +3, ML −0.5, DV −5, respectively (Paxinos and Watson, 2007). […] 1 mm probes were selected for higher spatial resolution and lower tissue damage compared to larger probes. Probes were secured to the skull by acrylic dental cement and metallic screws. Following surgery, rats were allowed to recover and experiments were run 24 hr after probe implantation. Microdialysis probes were flushed at a flow rate of 2 µl/min with aCSF (composition in mM: CaCl2 1.2; KCl 2.7, NaCl 148 and MgCl2 0.85) for 2 hr using a Chemyx Fusion 400 syringe pump (Chemyx, Stafford, TX). Perfusion flow rate was then reduced to 1 µl/min and samples were collected every 10 min. Baseline values were collected for 50 min and then the drug D-473 was injected (10 mg/kg, i.p.) and samples were collected for an additional 2 h. When experiments were completed, animals were euthanized and then brains were extracted and frozen at −80°C until histology.
Dopamine, norepinephrine (NE), serotonin (5HT), DOPAC, homovanillic acid (HVA) and 5-hydroxyindole acetic acid (5-HIAA) were analyzed using a benozyolation derivitization LC-MS method recently described by our laboratory. Briefly, 10 µl dialysate samples were derivatized by adding 5 µl of 100 mM sodium tetraborate, 5 µl of 2% benzoyl chloride in acetonitrile, and then 5 µl of a stable ^13C benzoylated isotope internal standard mixture was then added to improve quantitation. A Thermo Fisher Accela UHPLC (Waltham, MA) system automatically injected 5 µl of the sample onto a Waters (Milford, MA) HSS T3 reverse phase HPLC column (1 mm X 100 mm, 1.8 µm). Mobile phase A consisted of 10 mM ammonium formate and 0.15% formic acid. Mobile phase B was pure acetonitrile. Analytes were detected by an Thermo Fisher TSQ Quantum Ultra triple quadrupole mass spectrometer operating in multiple reaction monitoring (MRM) mode. The assay limits of detection were (nM in dialysate) for DA, 0.3; NE, 0.2; 5HT, 0.1; HVA, 0.5; DOPAC, 2; and 5HIAA, 5. […] Average standard deviation in above basal levels was 18%.
All neurochemical data were transformed into percent baseline with baseline values all averaging 100%. Statistical analysis was performed by t-test analysis of every point relative to baseline values (i.e. 100%) using Prism 6 (Graphpad Software Inc, La Jolla, CA). P values <0.05 were considered to be statistically significant.

hDAT = hDAT (Homo sapiens, UniProt Q01959); assay: Inhibition of [3H]DA uptake by cloned human DAT in HEK293 cells; conditions: nM, HEK293 cells expressing hDAT, average±S.E.M., 3 to 10 determinations
hNET = hNET (Homo sapiens, UniProt P23975); assay: Inhibition of [3H]DA uptake by cloned human NET in HEK293 cells
Sequence of hNET (P23975 whole entry): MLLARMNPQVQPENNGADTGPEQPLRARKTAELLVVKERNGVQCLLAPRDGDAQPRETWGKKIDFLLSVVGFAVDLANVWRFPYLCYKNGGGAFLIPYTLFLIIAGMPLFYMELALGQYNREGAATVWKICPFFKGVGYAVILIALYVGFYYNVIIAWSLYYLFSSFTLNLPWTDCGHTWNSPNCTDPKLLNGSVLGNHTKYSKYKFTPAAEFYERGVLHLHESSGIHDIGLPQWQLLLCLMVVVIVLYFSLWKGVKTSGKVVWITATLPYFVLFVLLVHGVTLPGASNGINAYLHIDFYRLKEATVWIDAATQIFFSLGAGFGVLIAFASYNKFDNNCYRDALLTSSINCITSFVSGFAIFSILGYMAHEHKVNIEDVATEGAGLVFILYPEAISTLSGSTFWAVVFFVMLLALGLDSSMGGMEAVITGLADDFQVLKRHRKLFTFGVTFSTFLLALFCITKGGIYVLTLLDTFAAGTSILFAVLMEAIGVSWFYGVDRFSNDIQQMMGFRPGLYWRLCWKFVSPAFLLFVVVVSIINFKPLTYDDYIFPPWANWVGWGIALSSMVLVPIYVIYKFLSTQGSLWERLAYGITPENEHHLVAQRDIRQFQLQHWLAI

T9 sequence (P25021 whole entry): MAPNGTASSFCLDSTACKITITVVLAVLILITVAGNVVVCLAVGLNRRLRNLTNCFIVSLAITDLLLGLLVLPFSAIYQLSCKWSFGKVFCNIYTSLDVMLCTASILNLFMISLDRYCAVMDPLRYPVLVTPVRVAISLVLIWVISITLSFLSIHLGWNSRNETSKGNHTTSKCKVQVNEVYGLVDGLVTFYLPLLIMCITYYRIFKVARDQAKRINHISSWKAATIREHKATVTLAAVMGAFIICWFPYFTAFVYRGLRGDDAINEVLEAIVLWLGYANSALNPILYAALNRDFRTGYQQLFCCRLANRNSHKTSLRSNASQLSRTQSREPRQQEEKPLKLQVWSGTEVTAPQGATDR
Sequence of D1 (P21728 whole entry): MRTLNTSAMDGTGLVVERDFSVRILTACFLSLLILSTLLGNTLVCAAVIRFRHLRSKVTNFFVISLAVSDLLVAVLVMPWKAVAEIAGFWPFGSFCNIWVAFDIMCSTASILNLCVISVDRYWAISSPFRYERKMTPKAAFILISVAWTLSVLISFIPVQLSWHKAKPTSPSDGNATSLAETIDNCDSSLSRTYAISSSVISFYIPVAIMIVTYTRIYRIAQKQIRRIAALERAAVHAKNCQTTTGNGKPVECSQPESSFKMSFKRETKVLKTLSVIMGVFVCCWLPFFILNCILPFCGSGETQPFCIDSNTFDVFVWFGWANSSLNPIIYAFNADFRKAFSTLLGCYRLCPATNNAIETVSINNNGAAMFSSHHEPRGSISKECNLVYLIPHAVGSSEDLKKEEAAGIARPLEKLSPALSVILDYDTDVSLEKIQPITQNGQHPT
Sequence of hDAT (Q01959 whole entry): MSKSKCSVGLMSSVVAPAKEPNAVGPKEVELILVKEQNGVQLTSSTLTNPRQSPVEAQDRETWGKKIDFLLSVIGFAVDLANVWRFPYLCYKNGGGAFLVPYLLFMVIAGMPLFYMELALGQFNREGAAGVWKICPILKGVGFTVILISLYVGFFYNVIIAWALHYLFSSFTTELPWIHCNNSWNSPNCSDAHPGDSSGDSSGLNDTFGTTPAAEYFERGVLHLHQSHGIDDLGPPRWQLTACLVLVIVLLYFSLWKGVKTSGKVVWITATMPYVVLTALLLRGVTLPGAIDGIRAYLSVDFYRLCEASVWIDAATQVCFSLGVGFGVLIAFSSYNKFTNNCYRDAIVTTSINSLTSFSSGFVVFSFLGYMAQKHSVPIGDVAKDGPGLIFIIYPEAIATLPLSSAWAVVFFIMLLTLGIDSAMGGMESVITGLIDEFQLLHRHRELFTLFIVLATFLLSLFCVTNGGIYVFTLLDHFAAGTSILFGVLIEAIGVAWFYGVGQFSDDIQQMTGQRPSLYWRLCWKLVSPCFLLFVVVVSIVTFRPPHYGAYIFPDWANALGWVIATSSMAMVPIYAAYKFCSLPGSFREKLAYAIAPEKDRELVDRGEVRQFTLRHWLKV
T8 sequence (P41143 whole entry): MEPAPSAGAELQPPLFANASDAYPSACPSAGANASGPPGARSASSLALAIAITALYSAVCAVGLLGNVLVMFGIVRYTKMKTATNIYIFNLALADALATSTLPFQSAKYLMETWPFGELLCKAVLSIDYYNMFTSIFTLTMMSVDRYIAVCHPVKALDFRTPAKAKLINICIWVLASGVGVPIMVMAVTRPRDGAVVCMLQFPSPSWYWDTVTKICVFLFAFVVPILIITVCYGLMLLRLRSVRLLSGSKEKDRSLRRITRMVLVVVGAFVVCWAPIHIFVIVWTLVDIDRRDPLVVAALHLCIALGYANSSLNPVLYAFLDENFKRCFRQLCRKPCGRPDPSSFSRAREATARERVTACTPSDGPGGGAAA
T3 sequence (P28221 whole entry): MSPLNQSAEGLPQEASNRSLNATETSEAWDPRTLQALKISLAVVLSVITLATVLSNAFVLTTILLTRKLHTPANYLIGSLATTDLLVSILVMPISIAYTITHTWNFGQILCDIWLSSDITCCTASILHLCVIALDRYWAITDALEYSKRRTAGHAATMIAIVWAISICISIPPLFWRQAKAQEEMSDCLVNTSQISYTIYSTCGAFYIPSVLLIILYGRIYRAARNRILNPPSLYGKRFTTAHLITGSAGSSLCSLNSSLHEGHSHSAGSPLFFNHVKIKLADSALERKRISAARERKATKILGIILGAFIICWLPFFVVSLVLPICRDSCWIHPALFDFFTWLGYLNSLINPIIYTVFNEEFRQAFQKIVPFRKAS
T2 sequence (P35462 whole entry): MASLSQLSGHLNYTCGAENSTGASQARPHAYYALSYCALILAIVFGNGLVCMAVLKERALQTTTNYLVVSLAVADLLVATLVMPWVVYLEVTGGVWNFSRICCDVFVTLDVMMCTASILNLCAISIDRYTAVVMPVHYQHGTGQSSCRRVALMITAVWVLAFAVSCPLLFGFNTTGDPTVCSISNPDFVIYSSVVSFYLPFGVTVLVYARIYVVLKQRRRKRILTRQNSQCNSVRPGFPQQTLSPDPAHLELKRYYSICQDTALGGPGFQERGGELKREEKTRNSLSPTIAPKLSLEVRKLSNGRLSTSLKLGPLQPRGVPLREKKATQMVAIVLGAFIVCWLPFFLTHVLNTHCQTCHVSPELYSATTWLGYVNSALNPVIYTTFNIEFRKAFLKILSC
T4 sequence (P46098 24-478): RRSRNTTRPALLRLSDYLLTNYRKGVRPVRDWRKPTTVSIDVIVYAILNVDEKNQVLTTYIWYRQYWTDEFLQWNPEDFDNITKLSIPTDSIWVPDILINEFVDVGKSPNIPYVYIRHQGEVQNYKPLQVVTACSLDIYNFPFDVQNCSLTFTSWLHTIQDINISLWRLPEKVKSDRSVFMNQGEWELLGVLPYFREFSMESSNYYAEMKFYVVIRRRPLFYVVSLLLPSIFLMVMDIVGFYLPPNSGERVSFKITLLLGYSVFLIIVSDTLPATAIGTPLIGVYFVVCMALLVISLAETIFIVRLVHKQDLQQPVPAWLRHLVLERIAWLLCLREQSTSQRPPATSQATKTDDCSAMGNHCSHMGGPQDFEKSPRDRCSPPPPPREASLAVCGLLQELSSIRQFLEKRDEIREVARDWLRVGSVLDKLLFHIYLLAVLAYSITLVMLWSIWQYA
T5 sequence (P50406 whole entry): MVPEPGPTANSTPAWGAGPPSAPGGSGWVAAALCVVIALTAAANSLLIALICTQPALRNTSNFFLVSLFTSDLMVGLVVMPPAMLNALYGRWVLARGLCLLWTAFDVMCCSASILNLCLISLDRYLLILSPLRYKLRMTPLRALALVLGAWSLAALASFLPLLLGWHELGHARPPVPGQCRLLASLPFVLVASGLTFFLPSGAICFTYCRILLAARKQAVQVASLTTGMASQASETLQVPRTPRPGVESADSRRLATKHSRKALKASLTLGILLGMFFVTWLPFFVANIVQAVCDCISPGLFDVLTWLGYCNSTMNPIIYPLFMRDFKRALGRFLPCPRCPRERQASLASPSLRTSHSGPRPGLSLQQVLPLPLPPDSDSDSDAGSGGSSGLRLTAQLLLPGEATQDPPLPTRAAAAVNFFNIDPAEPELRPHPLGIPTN
T1 sequence (P14416 whole entry): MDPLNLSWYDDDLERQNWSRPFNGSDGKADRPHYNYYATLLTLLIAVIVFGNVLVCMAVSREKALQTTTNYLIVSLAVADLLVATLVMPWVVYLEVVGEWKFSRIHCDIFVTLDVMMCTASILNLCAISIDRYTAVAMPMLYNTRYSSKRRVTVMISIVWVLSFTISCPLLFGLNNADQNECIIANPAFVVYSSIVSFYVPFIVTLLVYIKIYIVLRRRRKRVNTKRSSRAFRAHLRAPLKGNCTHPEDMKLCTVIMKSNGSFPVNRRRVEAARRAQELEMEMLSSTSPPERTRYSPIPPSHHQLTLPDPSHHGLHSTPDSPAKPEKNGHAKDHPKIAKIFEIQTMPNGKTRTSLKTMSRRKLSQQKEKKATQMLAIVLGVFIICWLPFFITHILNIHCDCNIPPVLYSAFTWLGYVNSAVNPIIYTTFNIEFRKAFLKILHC

With `COc1ccc(CN[C@@H]2CO[C@H](C(c3ccc(F)cc3)c3ccc(F)cc3)C[C@H]2O)cc1` [Compound D-473, (2S,4R,5R)-2-(bis(4-fluorophenyl)methyl)-5-((4-methoxybenzyl)amino)tetrahydro-2H-pyran-4-ol] the inhibition at 10 µM (D1; [3H]SCH 23390, 10 µM, read-out: % Inhibition of Binding at 10 µM D-473) was 62.2%, the Ki (D1; [3H]SCH 23390, secondary assay, read-out: Ki for D-473) was 630 nM and the inhibition at 10 µM (D2) was 42.9%. The inhibition at 10 µM (D3) was 30.8%, the inhibition at 10 µM (5HT1d) was 39% and the inhibition at 10 µM (5HT3) was 3.5%. For the same compound, the inhibition at 10 µM (5HT6) was -11.4%, the “% Inhibition of Binding at 10 µM D-473” value (GABA A) was 5.1% and the inhibition at 10 µM (Alpha1B) was 16.6%. For the same compound, the inhibition at 10 µM (Beta1) was 24.6%, the inhibition at 10 µM (δ-opioid) was 42.7% and the inhibition at 10 µM (H2; 10 µM, read-out: % Inhibition of Binding at 10 µM D-473) was 70.1%. For the same compound, the Ki (H2; secondary assay, read-out: Ki for D-473) was 141 nM, the “% Inhibition of Binding at 10 µM D-473” value (PBR) was 8.4% and the “Elevation of 5-HT over the basal level” value [1] was over 4 fold. For the same compound, the “Increase in DA” value [1] was 2 fold, the “Increase in NE” value [1] was 2 fold and the “Reduction of DOPAC, maximal” value [1] was 35–40%. For the same compound, the “Reduction of HVA, maximal” value [1] was 20%, the “Extracellular 5-HT at the end of two hours, percent baseline” value ([1]; baseline 100%) was 215% and the “Extracellular 5-HT, maximal, percent baseline” value ([1]; baseline 100%) was 403%. The “Extracellular DA at the end of two hours, percent baseline” value ([1]; baseline 100%) was 129%, the “Extracellular DA, maximal, percent baseline” value ([1]; baseline 100%) was 274% and the “Extracellular NE at the end of two hours, percent baseline” value ([1]; baseline 100%) was 142%. The “Extracellular NE, maximal, percent baseline” value ([1]; baseline 100%) was 238%, the Ki (hDAT) was 70 nM and 70.4 nM and the Ki (hNET; NET uptake, Ki, nM [3H]DA, HEK293 cells expressing hNET, average±S.E.M., 3 to 10 determinations) was 39 nM and 39.7 nM. The “Activity at NET relative to DAT” value (hNET; hNET vs hDAT uptake inhibition) was “roughly two fold more potent”.

— article PMC4245125, “Pharmacological and Behavioral Characterization of D-473, an Orally Active Triple Reuptake Inhibitor Targeting Dopamine, Serotonin and Norepinephrine Transporters” (PLoS ONE, 2014)
